# Results reported in PubChem BioAssay (NCI).
#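 At the GI50, growth is halved. TGI: concentration producing complete growth inhibition.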
# Assays:
# Experiment in all cases: NCI anticancer screen, dose series, 384-well format
# [1] = system: T-47D breast
# [2] = system: HOP-62 NSCLC
# [3] = system: ACHN renal
# [4] = system: SF-539 CNS
# [5] = system: HOP-92 NSCLC
# [6] = system: SF-295 CNS
# [7] = system: SN12C renal
# [8] = system: U251 glioblastoma
# [9] = system: A549 NSCLC
# [10] = system: DU-145 prostate
# [11] = system: PC-3 prostate
# [12] = system: SW-620 colon
# [13] = system: SNB-19 CNS
# [14] = system: M14 melanoma
# [15] = system: MOLT-4 leukemia
# [16] = system: UACC-62 melanoma
# [17] = system: SK-OV-3 ovarian
# [18] = system: LOX IMVI melanoma
# [19] = system: K-562 leukemia
# [20] = system: RXF 393 renal
# [21] = system: NCI/ADR-RES ovarian
# [22] = system: OVCAR-3 ovarian
# [23] = system: MCF7 breast
# [24] = system: SR leukemia
# [25] = system: RPMI-8226 leukemia
# [26] = system: CCRF-CEM leukemia
# [27] = system: BT-549 breast
# [28] = system: NCI-H23 lung
# [29] = system: MDA-MB-435 melanoma
# [30] = system: SK-MEL-28 melanoma
# [31] = system: HL-60(TB) leukemia
# [32] = system: NCI-H522 lung
# [33] = system: IGROV1 ovarian
# [34] = system: COLO 205 colon
# [35] = system: HCT-15 colon
# [36] = system: 786-0 renal
# [37] = system: SK-MEL-5 melanoma
# [38] = system: UO-31 renal
# [39] = system: EKVX NSCLC
# [40] = system: MDA-MB-231 breast
# [41] = system: OVCAR-4 ovarian
# [42] = system: CAKI-1 renal
# [43] = system: A498 renal
# [44] = system: OVCAR-5 ovarian
# [45] = system: NCI-H322M lung
# [46] = system: UACC-257 melanoma
# [47] = system: HT29 colon
# [48] = system: NCI-H460 NSCLC
# [49] = system: MDA-MB-468 breast
# [50] = system: SNB-75 CNS
# [51] = system: OVCAR-8 ovarian
# [52] = system: MALME-3M melanoma
# [53] = system: HS 578T breast
# [54] = system: KM12 colon
# [55] = system: NCI-H226 lung
# [56] = system: SF-268 CNS
# [57] = system: HCC-2998 colon
# [58] = system: TK-10 renal
smiles,measurement,setting,value
c1ccc(-c2nn3c(c2-c2ccnc4cc(OCCN5CCOCC5)ccc24)CCC3)nc1,GI50,[1],> 100 µM
same,TGI,[1],> 100 µM
same,GI50,[2],> 100 µM
same,TGI,[2],> 100 µM
same,GI50,[3],66.9 µM
same,TGI,[3],> 100 µM
same,GI50,[4],> 100 µM
same,TGI,[4],> 100 µM
same,GI50,[5],85.6 µM
same,TGI,[5],> 100 µM
same,GI50,[6],> 100 µM
same,TGI,[6],> 100 µM
same,GI50,[7],> 100 µM
same,TGI,[7],> 100 µM
same,GI50,[8],> 100 µM
same,TGI,[8],> 100 µM
same,GI50,[9],29.9 µM
same,TGI,[9],> 100 µM
same,GI50,[10],> 100 µM
same,TGI,[10],> 100 µM
same,GI50,[11],> 100 µM
same,TGI,[11],> 100 µM
same,GI50,[12],> 100 µM
same,TGI,[12],> 100 µM
same,GI50,[13],> 100 µM
same,TGI,[13],> 100 µM
same,GI50,[14],> 100 µM
same,TGI,[14],> 100 µM
same,GI50,[15],4.62 µM
same,TGI,[15],17.4 µM
same,GI50,[16],> 100 µM
same,TGI,[16],> 100 µM
same,GI50,[17],> 100 µM
same,TGI,[17],> 100 µM
same,GI50,[18],> 100 µM
same,TGI,[18],> 100 µM
same,GI50,[19],23.4 µM
same,TGI,[19],> 100 µM
same,GI50,[20],> 100 µM
same,TGI,[20],> 100 µM
same,GI50,[21],> 100 µM
same,TGI,[21],> 100 µM
same,GI50,[22],> 100 µM
same,TGI,[22],> 100 µM
same,GI50,[23],24.9 µM
same,TGI,[23],> 100 µM
same,GI50,[24],40.3 µM
same,TGI,[24],> 100 µM
same,GI50,[25],48 µM
same,TGI,[25],> 100 µM
same,GI50,[26],39.3 µM
same,TGI,[26],> 100 µM
same,GI50,[27],> 100 µM
same,TGI,[27],> 100 µM
same,GI50,[28],> 100 µM
same,TGI,[28],> 100 µM
same,GI50,[29],> 100 µM
same,TGI,[29],> 100 µM
same,GI50,[30],> 100 µM
same,TGI,[30],> 100 µM
same,GI50,[31],> 100 µM
same,TGI,[31],> 100 µM
same,GI50,[32],58.2 µM
same,TGI,[32],> 100 µM
same,GI50,[33],> 100 µM
same,TGI,[33],> 100 µM
same,GI50,[34],37.9 µM
same,TGI,[34],> 100 µM
same,GI50,[35],37.3 µM
same,TGI,[35],> 100 µM
same,GI50,[36],> 100 µM
same,TGI,[36],> 100 µM
same,GI50,[37],16.2 µM
same,TGI,[37],> 100 µM
same,GI50,[38],> 100 µM
same,TGI,[38],> 100 µM
same,GI50,[39],> 100 µM
same,TGI,[39],> 100 µM
same,GI50,[40],> 100 µM
same,TGI,[40],> 100 µM
same,GI50,[41],> 100 µM
same,TGI,[41],> 100 µM
same,GI50,[42],62.4 µM
same,TGI,[42],> 100 µM
same,GI50,[43],> 100 µM
same,TGI,[43],> 100 µM
same,GI50,[44],> 100 µM
same,TGI,[44],> 100 µM
same,GI50,[45],> 100 µM
same,TGI,[45],> 100 µM
same,GI50,[46],> 100 µM
same,TGI,[46],> 100 µM
same,GI50,[47],48.2 µM
same,TGI,[47],> 100 µM
same,GI50,[48],51.3 µM
same,TGI,[48],> 100 µM
same,GI50,[49],40.3 µM
same,TGI,[49],> 100 µM
same,GI50,[50],> 100 µM
same,TGI,[50],> 100 µM
same,GI50,[51],> 100 µM
same,TGI,[51],> 100 µM
same,GI50,[52],> 100 µM
same,TGI,[52],> 100 µM
same,GI50,[53],> 100 µM
same,TGI,[53],> 100 µM
same,GI50,[54],85.1 µM
same,TGI,[54],> 100 µM
same,GI50,[55],> 100 µM
same,TGI,[55],> 100 µM
same,GI50,[56],> 100 µM
same,TGI,[56],> 100 µM
same,GI50,[57],> 100 µM
same,TGI,[57],> 100 µM
same,GI50,[58],> 100 µM
same,TGI,[58],> 100 µM
